One assay has as its target T1, Ret wt (Homo sapiens, UniProt P07949).
T1 construct: purchased Invitrogen PV3082
The experiment in a line: HTRF kinase activity test, RET wild type. It is filed as biochemical. The following applies: Table 3; read-out: RET Enzyme (wild type) IC50. As to the method:
This test combined peptide substrates and a single proprietary monoclonal antibody with HTRF technology, which was a highly sensitive and stable technology for detecting molecular interactions of proteins. The enzyme phosphorylates the substrate, then the Eu-labeled antibody binds to the phosphorylated substrate, and streptavidin-XL665 binds to all substrates. The TR-FRET signal was generated by the HTRF principle. […] Based on this, the inhibitory effect was evaluated.
The other compounds were diluted 3-fold gradiently with DMSO from the 10 mM stock solution to a total of 10 concentrations respectively.
Adding 4 volumes of distilled water to 1 volume of enzyme buffer 5×; 5 mM MgCl2; 1 mM DTT.
b) centrifuging the compound plate for 1 minute at 1000 g.
c) sealing the test board.
f) adding 4 μl of 1× kinase buffer to each well of the test plate, centrifuging the sample plate at 1000 g for 30 seconds, and placing it at room temperature for 10 minutes.
g) preparing a solution of 5× TK-substrate-biotin ([…]) in kinase buffer and 5×ATP (50 μM) in kinase buffer respectively.
h) starting the reaction by adding 2 μl STK-substrate-biotin and 2 μl ATP (prepared in the step g).
i) centrifuging the sample plate for 30 seconds at 1000 g. Sealing the test board and placing it at room temperature for 30 minutes.
) centrifuging at 1000 g for 30 seconds and placing it at room temperature for 1 hour.
The inhibition rate % was calculated as follows:
Inhibition rate %=[1−(fluorescence signal value of test compound−fluorescence signal value of positive control)/(average ratio of negative control−average ratio of positive control)]*100%
Ratio: generated from the measured fluorescence signal value
The average ratio of the positive control is the average ratio of the positive control (200 nM AT13148) in the sample plate;
The average ratio of negative controls is the average ratio of negative controls (0.1% DMSO) in the sample plate.
GraphPad 6.0 was used to fit the logarithm of the % inhibition rate and the compound concentration into a nonlinear regression (dose response−variable slope) to calculate the IC50 value.
Background: In TR-FRET formats the signal depends on donor and acceptor labels being close together.

Another assay deals with TT Cell. The experiment in a line: Cell inhibitory activity test (CCK8). It is filed as cell-based. To be noted: Table 3, 72 hours incubation. As to the method: Cell Inhibitory Activity Test
1. preparing 90 μl of cell suspension in a 96-well plate with 4000 cells/well. Pre-incubating the culture plate in an incubator for 24 hours (37° C., 5% CO2).
2. adding 10 μl of test compounds of different concentrations to each well of cells, and each compound has multiple wells.
3. incubating the culture plate in the incubator for 72 hours.
4. adding 10 μl of CCK8 solution to each well (be careful not to generate bubbles in the well, otherwise they would affect the reading of the OD value).
5. incubating the culture plate in the incubator for 1-2 hours.
6. measuring the absorbance at 450 nm with a microplate reader.
7. according to the compound concentration and absorbance value, GraphpadPrism software was used to calculate the IC50 of each compound.

Assay [1] relates to RET wild-type, mutant and/or fusion-type. The experiment in a line: Overall statement on RET inhibitory activity (summary of Table 3). To be noted: statement in words summarising Table 3. The text has this: As shown in the above table, the example compounds of the present disclosure have improved inhibitory activity against RET wild-type, mutant and/or fusion-type.

The term IC50 denotes the midpoint of a concentration-inhibition curve.

T1 sequence (P07949 29-1114): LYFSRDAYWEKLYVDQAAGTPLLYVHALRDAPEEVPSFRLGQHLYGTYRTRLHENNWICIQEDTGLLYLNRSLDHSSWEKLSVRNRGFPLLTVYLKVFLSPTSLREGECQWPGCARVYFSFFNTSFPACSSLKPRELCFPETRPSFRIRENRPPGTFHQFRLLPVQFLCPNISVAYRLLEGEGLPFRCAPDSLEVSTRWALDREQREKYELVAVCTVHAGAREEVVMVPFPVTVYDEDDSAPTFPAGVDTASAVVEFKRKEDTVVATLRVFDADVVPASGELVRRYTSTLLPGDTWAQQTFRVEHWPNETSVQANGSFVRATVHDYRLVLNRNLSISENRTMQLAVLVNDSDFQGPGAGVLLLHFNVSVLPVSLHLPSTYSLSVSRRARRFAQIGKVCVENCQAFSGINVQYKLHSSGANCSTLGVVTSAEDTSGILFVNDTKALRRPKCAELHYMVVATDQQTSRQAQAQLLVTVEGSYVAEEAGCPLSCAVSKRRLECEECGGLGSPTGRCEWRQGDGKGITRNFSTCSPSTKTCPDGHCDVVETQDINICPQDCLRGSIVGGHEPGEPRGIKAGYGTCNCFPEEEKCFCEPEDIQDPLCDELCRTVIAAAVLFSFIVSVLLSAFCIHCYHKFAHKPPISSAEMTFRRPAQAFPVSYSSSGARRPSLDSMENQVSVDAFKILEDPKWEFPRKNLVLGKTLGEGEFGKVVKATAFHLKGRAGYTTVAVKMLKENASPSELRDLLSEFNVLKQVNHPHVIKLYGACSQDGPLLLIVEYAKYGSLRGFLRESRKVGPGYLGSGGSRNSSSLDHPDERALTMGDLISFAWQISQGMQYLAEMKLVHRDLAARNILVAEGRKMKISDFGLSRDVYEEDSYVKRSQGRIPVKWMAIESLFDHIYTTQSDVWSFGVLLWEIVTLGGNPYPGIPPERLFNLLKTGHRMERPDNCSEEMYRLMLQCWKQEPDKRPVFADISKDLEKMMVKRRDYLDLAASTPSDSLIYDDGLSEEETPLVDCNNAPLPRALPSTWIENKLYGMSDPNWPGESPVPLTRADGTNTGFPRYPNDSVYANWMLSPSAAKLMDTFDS

As to “2-amino-4-(6-(4-((2-fluorobenzyl)piperazine-6-(1-methyl-1H-pyrazol-4-yl)pyrazolo[1,5-a]pyridine-3-carbonitrile [APS015]”, the IC50 at Ret wt was determined as 1.7 nM; with TT Cell, 27.7 nM. Moreover, the “inhibitory activity against RET wild-type, mutant and/or fusion-type” value (shortened to “inhibitory activity”) in assay [1] is on record as “excellent activity”.

On to `Cn1cc(-c2cc(-c3ccc(N4CCN(Cc5cncc(F)c5)CC4)nc3)c3c(C#N)c(N)nn3c2)cn1` [APS014], for which the IC50 was 1 nM at Ret wt and 44.6 nM in the assay on TT Cell (Homo sapiens, TT). The “inhibitory activity” value in assay [1] is on record as “excellent activity”.

In the case of `Cn1cc(-c2cc(-c3ccc(N4CCN(Cc5cccc(F)c5)CC4)nc3)c3c(C#N)c(N)nn3c2)cn1` [APS019], the IC50 on Ret wt was less than 1 nM; in the assay with TT Cell (Homo sapiens, TT), 7.8 nM. For the same compound, in assay [1], the “inhibitory activity” value was “excellent activity”.

With `Cn1cc(-c2cc(-c3ccc(N4CCN(Cc5cc(F)ccc5F)CC4)nc3)c3c(C#N)c(N)nn3c2)cn1` [APS020], the IC50 on Ret wt is 1.1 nM; in the assay on TT Cell (Homo sapiens, TT), 14.3 nM. For the same compound, in assay [1], the “inhibitory activity” value is “excellent activity”.

As to `Cc1cccnc1CN1CCN(c2ccc(-c3cc(-c4cnn(C)c4)cn4nc(N)c(C#N)c34)cn2)CC1` [APS022], the IC50 at Ret wt amounted to 2.2 nM; in the assay on TT Cell (Homo sapiens, TT), 45.5 nM. Moreover, the “inhibitory activity” value in assay [1] is recorded as “excellent activity”.

On to `Cn1cc(-c2cc(-c3ccc(N4CCN(Cc5c(F)cccc5F)CC4)nc3)c3c(C#N)c(N)nn3c2)cn1` [APS024, 2-amino-4-(6-(4-(2,6-difluorobenzyl)piperazin-1-yl)pyridin-3-yl)-6-(1-methyl-1H-pyrazole-4-yl)pyrazolo[1,5-a]pyridine-3-carbonitrile], for which the IC50 amounted to 1 nM on Ret wt and 7.1 nM in the assay with TT Cell (Homo sapiens, TT). Also, the “inhibitory activity” value in assay [1] was “excellent activity”.

With `Cc1ccnc(CN2CCN(c3ccc(-c4cc(-c5cnn(C)c5)cn5nc(N)c(C#N)c45)cn3)CC2)c1` [APS025], the IC50 is 1.4 nM on Ret wt and 38.2 nM with TT Cell (Homo sapiens, TT). In addition, the “inhibitory activity” value in assay [1] is given as “excellent activity”.

Take `COc1cccc(CN2CCN(c3ccc(-c4cc(-c5cnn(C)c5)cn5nc(N)c(C#N)c45)cn3)CC2)c1` [APS026, 2-amino-4-(6-(4-(3-methoxybenzyl)piperazin-1-yl)pyridin-3-yl)-6-(1-methyl-1H-pyrazole-4-yl)pyrazolo[1,5-a]pyridine-3-carbonitrile]: the IC50 worked out at 1.4 nM at Ret wt and 18.1 nM with TT Cell (Homo sapiens, TT). Moreover, the “inhibitory activity” value in assay [1] was “excellent activity”.

In the case of `Cn1cc(-c2cc(-c3ccc(N4CCN(Cc5ccccc5Cl)CC4)nc3)c3c(C#N)c(N)nn3c2)cn1` [APS027, 2-amino-4-(6-(4-(2-chlorobenzyl)piperazin-1-yl)pyridin-3-yl)-6-(1-methyl-1H-pyrazol-4-yl) pyrazolo[1,5-a]pyridine-3-carbonitrile], the IC50 at Ret wt amounted to 2.4 nM; in the assay with TT Cell (Homo sapiens, TT), 85.7 nM. Also, the “inhibitory activity” value in assay [1] is on record as “excellent activity”.

Consider `Cn1cc(-c2cc(-c3ccc(N4CCN(Cc5ccccn5)CC4)nc3)c3c(C#N)c(N)nn3c2)cn1` [APS035, 2-amino-6-(1-methyl-1H-pyrazol-4-yl)-4-(6-(4-(4-(pyridin-2-yl)methyl)piperazin-1-yl)pyridin-3-yl)pyrazolo[1,5-a]pyridine-3-carbonitrile], for which the IC50 at Ret wt is 1.7 nM; with TT Cell (Homo sapiens, TT), 65.4 nM. Besides, the “inhibitory activity” value in assay [1] was “excellent activity”.

Regarding `Cn1cc(-c2cc(-c3ccc(N4CC5CC(C4)N5Cc4ccccn4)nc3)c3c(C#N)c(N)nn3c2)cn1` [APS038, 2-amino-6-(1-methyl-1H-pyrazol-4-yl)-4-(6-(6-(pyridin-2-yl-methyl)-3,6-diazabicyclo[3.1.1]heptan-3-yl)pyridin-3-yl)pyrazolo[1,5-a]pyridine-3-carbonitrile], the IC50 at Ret wt was 1 nM; in the assay with TT Cell (Homo sapiens, TT) it was 37.7 nM. For the same compound, the “inhibitory activity” value in assay [1] was “excellent activity”.

`COc1ccc(CN2CCN(c3ccc(-c4cc(-c5cnn(C)c5)cn5nc(N)c(C#N)c45)cn3)CC2)cn1` [APS068, 2-amino-4-(6-(4-((6-methoxypyridin-3-yl)methyl)piperazin-1-yl)pyridin-3-yl)-6-(1-methyl-1H-pyrazol-4-yl)pyrazolo[1,5-a]pyridine-3-carbonitrile] showed an IC50 with TT Cell (Homo sapiens, TT) of 11.3 nM. The “inhibitory activity” value in assay [1] is “excellent activity”.

As to `CCOc1cc(-c2ccc(N3CCN(Cc4ccc(OC)nc4)CC3)nc2)c2c(C#N)c(N)nn2c1` [APS099], the IC50 with TT Cell (Homo sapiens, TT) was found to be 16.2 nM. The “inhibitory activity” value in assay [1] is “excellent activity”.

In the assay on TT Cell (Homo sapiens, TT), `COCCOc1cc(-c2ccc(N3CCN(Cc4ccc(OC)nc4)CC3)nc2)c2c(C#N)c(N)nn2c1` [APS100, 2-amino-6-(2-methoxyethoxy)-4-(6-(4-((6-methoxypyridin-3-yl)methyl)piperazin-1-yl)pyridine-3-yl)pyrazolo[1,5-a]pyridine-3-carbonitrile] had an IC50 of 22.4 nM. Besides, in assay [1], the “inhibitory activity” value was “excellent activity”.

Compound `CCOc1cc(-c2ccc(N3CC4CC(C3)N4Cc3cncc(F)c3)nc2)c2c(C#N)c(N)nn2c1` [APS111, 2-amino-6-ethoxy-4-(6-(6-((5-fluoropyridin-3-yl)methyl)-3,6-diazabicyclo[3.1.1]heptane-3-yl)pyridin-3-yl)pyrazolo[1,5-a]pyridine-3-carbonitrile] returned an IC50 in the assay with TT Cell (Homo sapiens, TT) of 6.4 nM. For the same compound, in assay [1], the “inhibitory activity” value was “excellent activity”.

`COc1ccc(CN2C3CC2CN(c2ccc(-c4cc(OCCOC(C)C)cn5nc(N)c(C#N)c45)cn2)C3)cn1` [APS120, 2-amino-6-(2-isopropoxyethoxy)-4-(6-(6-((6-methoxypyridin-3-yl)methyl)-3,6-diazabicyclo [3.1.1]heptan-3-yl)pyridin-3-yl)pyrazolo[1,5-a]pyridine-3-carbonitrile]: the IC50 in the assay on TT Cell (Homo sapiens, TT) amounted to 16.9 nM. Besides, the “inhibitory activity” value in assay [1] is listed as “excellent activity”.
